{"source": "patent US6610835B1", "about": "“Sphingolipid derivatives and their methods of use” (Emory University, priority 1998, dated 2003)", "key": {"[1]": {"tested_on": "HT-29 cells", "test": "MTT assay, induction of cell death by sphingolipids", "format": "cell-based, human", "method": "The activity of sphingosine, sphinganine and 1-deoxy-5-hydroxy-sphinganine in a human colon cancer cell line was investigated. The structures of the tested compounds appear below. [drawing 4]\nAn MTT assay was used to determine the cytotoxicity of the compounds shown above. Only cells with intact mitochondria are able to form formazane crystals, whereas late apoptotic and necrotic cells are not. The optical density of formazane crystals is used to infer cell viability. A 15 μM treatment of 1-deoxy-5-hydroxy-sphinganine results in nearly 100% cell death in HT-29 cells after 24 hours."}, "[2]": {"tested_on": "C3H 10T1/2 cells", "conditions": "cited from earlier work; for promotion of transformed foci by phorbol esters: levels that affected protein kinase C but not noticeably cytotoxic"}, "[3]": {"tested_on": "aberrant colonic crypts induced by DMH", "conditions": "diet supplemented with 0.05% sphingomyelin, analyzed on week 7; cited from earlier work"}, "[4]": {"conditions": "in vivo; cited from earlier work"}, "[5]": {"tested_on": "DMH-induced tumors", "conditions": "cited from earlier work"}, "[6]": {"conditions": "mouse, in vivo; cited from earlier work"}, "[7]": {"molecular_target": "T1, β-glucuronidase from E. coli (Escherichia coli, UniProt P05804)", "T1 construct": "purchased Sigma", "T1 sequence (P05804 whole entry)": "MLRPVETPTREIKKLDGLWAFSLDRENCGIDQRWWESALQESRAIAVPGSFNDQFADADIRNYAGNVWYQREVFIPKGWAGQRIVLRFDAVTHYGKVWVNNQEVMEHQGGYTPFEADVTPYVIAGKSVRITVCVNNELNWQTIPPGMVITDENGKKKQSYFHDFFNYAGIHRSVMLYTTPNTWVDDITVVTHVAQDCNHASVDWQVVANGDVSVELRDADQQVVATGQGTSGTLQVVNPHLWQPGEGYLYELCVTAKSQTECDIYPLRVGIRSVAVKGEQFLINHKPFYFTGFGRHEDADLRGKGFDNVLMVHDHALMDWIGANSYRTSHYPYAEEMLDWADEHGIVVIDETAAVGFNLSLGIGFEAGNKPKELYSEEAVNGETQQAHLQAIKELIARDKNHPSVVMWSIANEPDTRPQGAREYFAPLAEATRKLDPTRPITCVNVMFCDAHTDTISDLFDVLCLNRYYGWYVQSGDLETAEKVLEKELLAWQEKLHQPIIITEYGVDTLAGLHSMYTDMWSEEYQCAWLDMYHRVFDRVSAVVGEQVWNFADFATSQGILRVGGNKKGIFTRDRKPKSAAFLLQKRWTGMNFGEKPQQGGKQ", "test": "Cleavage of GluAcCer by bacterial β-glucuronidase", "format": "biochemical", "conditions": "β-glucuronidase from E. coli (Sigma), supplier's instructions", "description": "Glucornoylceramide (GluAcCer), a ceramide with a glucuronic acid headgroup was synthesized according to the methods described above. The metabolism of GluAcCer requires β-glucuronidase, an enzyme found in bacteria but not in human intestinal cells. Accordingly, dietary GluAcCer cannot be digested in the small intestine but should be hydrolyzed in the colon by the colonic microflora."}, "[8]": {"tested_on": "colonic crypts", "test": "Cell proliferation in colonic crypts of DMH-treated mice fed GluAcCer", "format": "in vivo", "method": "Female CF1 mice were injected with DMH to initiate colonic tumors. […] The control group was fed the AIN 76A diet without supplements (one group without DMH and the other with DMH only). After four weeks, the mice were killed, the colons excised, and evaluated for the appearance of ACF.\nThe effect of GluAcCer on cell proliferation was also investigated since a deregulation of cell growth is observed in carcinogenesis. […] Therefore, feeding synthetic GluAcCer to mice suppresses the formation of early stages in colon carcinogenesis, possibly by restricting the proliferation to the lower half of the colonic crypt."}, "[9]": {"tested_on": "ACF (DMH-initiated colonic tumors)", "test": "Chemically (DMH) induced colon cancer model, aberrant crypt foci (ACF) after dietary supplementation", "format": "in vivo, Female CF1 mice", "conditions": "for ACF: four weeks after DMH, control 30.2±4.19", "method": "Female CF1 mice were injected with DMH to initiate colonic tumors. After initiation, the mice were fed and AIN 76A diet supplemented with GluAcCer (0.025 or 0.1% of the diet). The control group was fed the AIN 76A diet without supplements (one group without DMH and the other with DMH only). After four weeks, the mice were killed, the colons excised, and evaluated for the appearance of ACF."}, "[10]": {"tested_on": "renal bladder and colon cancer cell lines", "conditions": "cited from earlier work"}}}
{"compound": "CCCCCCCCCCCCC/C=C/C(O)C(N)CO", "note": "[sphingosine, D-erythro-4-trans-sphinganine]", "values": [{"measurement": "treatment required to produce comparable (nearly 100%) cell death", "setting": "[1]; after 24 hours", "value": 50, "unit": "µM"}, {"measurement": "number of transformed foci in cells treated with just γ-irradiation", "setting": "[2]", "value": "reduced the number of transformed foci"}, {"measurement": "promotion of transformed foci by phorbol esters", "setting": "[2]", "value": "completely blocked"}]}
{"compound": "sphingomyelin", "values": [{"measurement": "reduction in the number of aberrant colonic crypts induced by DMH", "setting": "[3]", "value": 50, "unit": "%"}, {"measurement": "peak absorption of radiolabel after feeding", "setting": "[4]", "value": 10, "unit": "h"}, {"measurement": "radiolabel found in feces, mainly as ceramide", "setting": "[4]", "value": "21-46%"}, {"measurement": "radiolabel recovered in lymph", "setting": "[4]", "value": "up to 30%"}, {"measurement": "tumor incidence versus control", "setting": "[5]; milk sphingomyelin pilot and buttermilk sphingomyelin experiment", "value": "about half"}, {"measurement": "tumor type (adenomas versus adenocarcinomas)", "setting": "[5]; second study with buttermilk sphingomyelin, histological analyses", "value": "more adenomas versus adenocarcinomas than for the control"}, {"measurement": "number of overall tumors", "setting": "[5]; second study with buttermilk sphingomyelin", "value": "no reduction"}, {"measurement": "label appeared in liver sphingolipids", "setting": "[6]", "value": "About 5%"}, {"measurement": "radiolabel progressed into the colon", "setting": "[6]", "value": "3-5%"}]}
{"compound": "CCCCCCCCCCCCC/C=C/[C@@H](O)[C@H](CO[C@@H]1O[C@H](C(=O)O)[C@@H](O)[C@H](O)[C@H]1O)NC(=O)CCCCCCCCCCCCCCC", "note": "[GluAcCer, 1-O-B-D-Glucuronoyl-2N-palmitoylsphingosine]", "values": [{"measurement": "ability to be cleaved by bacterial enzymes", "setting": "[7]", "value": "cleaved by bacterial enzymes"}, {"measurement": "proliferation in the lower half of the colonic crypts", "setting": "[8]; GluAcCer (FIG. 13b)", "value": "reduced the proliferation"}, {"measurement": "proliferation in the upper half of the crypts", "setting": "[8]; both concentrations of GluAcCer in the diet (FIG. 13a)", "value": "reduced proliferation in the upper half of the crypts in a dose dependent manner"}, {"measurement": "ACF", "setting": "[9]; 0.025% GluAcCer in AIN 76A diet", "value": "21 ±2.94"}, {"measurement": "inhibition of ACF formation", "setting": "[9]; 0.025 or 0.1% of the diet, versus control (FIG. 12)", "value": "20-30%"}, {"measurement": "ACF", "setting": "[9]; 0.1% GluAcCer in AIN 76A diet", "value": "19.2±3.09"}]}
{"compound": "CCCCCCCCCCCCCCC[C@@H](O)[C@@H](N)CO", "note": "[sphinganine]", "values": [{"measurement": "treatment required to produce comparable (nearly 100%) cell death", "setting": "[1]; after 24 hours", "value": 50, "unit": "µM"}, {"measurement": "number of transformed foci in cells treated with just γ-irradiation", "setting": "[2]", "value": "reduced the number of transformed foci"}, {"measurement": "promotion of transformed foci by phorbol esters", "setting": "[2]", "value": "completely blocked"}]}
{"compound": "CCCCCCCCCCCCCC(O)CC(O)C(C)N", "note": "(stereo not drawn) [1-deoxy-5-hydroxy-sphinganine]", "values": [{"measurement": "potency in inducing cell death relative to sphingosine and sphinganine", "setting": "[1]", "value": "at least twice as potent"}, {"measurement": "cell death", "setting": "[1]; 15 μM treatment, after 24 hours", "value": "~100", "unit": "%"}]}
{"compound": "Fumonisin B", "values": [{"measurement": "cytostatic activity", "setting": "[10]", "value": "has cytostatic activity"}]}
